Experiments:
Streptavidin = Streptavidin (Streptomyces avidinii, UniProt P22629); details: binding to streptavidin; cited from earlier work
MCF7:PIK3CA-WT cells = test: CyQuant proliferation assay, alpelisib dose response, PIK3CA-WT cells; format: cell-based; details: estrogen deprived conditions, 5 days
Method: (§1) Dose response curves are shown for three different MCF7 sublines (MCF7:WS8, MCF7:PIK3CA-mutant, MCF7:PIK3CA-WT) in response to treatment with fulvestrant or alpelisib. Proliferation was determined by a CyQuant genomic DNA quantification. Individual points represent the mean of n=8 replicate wells. Curves represent the least-squares fit of the Hill equation. Error bands represent the 95% confidence interval of the fit, as determined using the gradient method.
(§2) The MCF7 cell line harbors two activating E545K mutant PIK3CA alleles. To evaluate the relationship between PIK3CA mutation, AREG expression, and drug resistance, the MCF7 parental line was compared to a previously published isogenic MCF7 line with a wildtype (WT) PIK3CA knock in, which has both mutant alleles corrected (see Beaver et al., Clin. Cancer Res. 19:5413-5422, 2013). […] Then, under estrogen deprived conditions, the growth of MCF7 PIK3CA mutant or MCF7:PIK3CA-WT cells was assessed over 5 days in the presence of varying doses of alpelisib (a PI3K inhibitor) (FIGS. 9B and 9C). Proliferation was quantified by an end-point genomic DNA quantification (CyQuant), and then the concentration-response curve was fit to a Hill equation to extract the IC50 and the asymptotic proliferation in the limit of infinite drug […].

MCF7:PIK3CA-mutant cells = test: CyQuant proliferation assay, alpelisib dose response, PIK3CA mutant cells; format: cell-based; details: estrogen deprived conditions, 5 days
Method: as §1, §2

HCC70 spheroids [1] = test: Streptavidin dot blot of lysates from labeled 3D cultures; format: cell-based; details: for streptavidin binding signal, hydrogels containing HCC70 cells versus cell-free EHS matrix: fully embedded EHS matrix hydrogel (7-10 mg/mL protein)
Method: To evaluate the extent to which the streptavidin signal produced was due to reactions with azide-labeled proteins, HCC70 breast cancer cell spheroids were cultured in 2% EHS matrix suspension culture with or without azidohomoalanine.
To assess the specificity of the labeling, streptavidin dot blots were performed with homogeneous lysates prepared from each of the labeling conditions. Additionally, unlabeled lysate was included to account for non-specific binding of the streptavidin reagent, itself. […] As a non-specific reaction control, the same labeling conditions were evaluated in “empty” EHS matrix hydrogels, which contained no cells. […] After labeling and washing the samples, homogeneous lysates of all conditions were prepared.
Generation of fully embedded 3D HCC70 cultures. HCC70 spheroids were first seeded in suspension in 2% EHS matrix (following one passage in 3D suspension culture). After allowing spheroids to form for 24 hours, the spheroids were pelleted, the supernatant was aspirated, and the spheroids were directly resuspended in ice-cold EHS matrix (undiluted from the manufacturer's preparation at a typical concentration of 7-10 mg/mL). Resuspension was achieved by slow pipetting up and down forty times on ice with pipette tips that were pre-chilled at −20° C. Next, EHS matrix “domes” were created by pipetting thirty microliters of the EHS matrix/spheroid suspension directly into the center of the well of a 24-well plate with a No. 1.5 polymer coverglass bottom. The plate was flipped upside down to prevent spheroids from settling onto the coverglass, and the plate was incubated at 37° C., 5% CO2, for 1 hour to allow the EHS matrix to form an elastic hydrogel. The domes were then covered with complete cell culture media (1 mL per well) and cultured at 37° C., 5% CO2.
Streptavidin dot blot analysis. Spheroid lysates were prepared as described above. […]
MCF7:WS8 cells [2] = test: Click labeling and PEA (Olink Explore 3072) differential intercellular protein expression; format: cell-based
Method: PEA was used to quantify protein abundance in MCF7:WS8 cells treated with estradiol (1 nM) and fulvestrant concomitantly or with estradiol (1 nM) alone. Proteins from cells treated with or without fulvestrant were ranked by a log 2-fold change in abundance and by a false-discovery rate and identified.
The eluted protein fraction was then subjected to proximity extension assay-based quantification using the Olink® Explore protocol to quantify the abundance of proteins in a 3072-plex panel.
Intercellular protein discovery by the proximity extension assay and NPX normalized protein abundance calculation. Proteins were measured using the Olink® Explore 3072 panel (Olink Proteomics AB, Uppsala, Sweden) according to the manufacturer's instructions. For each experimental replicate, eighty microliters of elution solution (representing labeled proteins from eight hundred thousand cells), was used directly for the Olink Explore protocol.
MCF7:WS8 cells [3] = test: CyQuant genomic DNA proliferation assay, fulvestrant dose response; format: cell-based; details: estradiol 1 nM; for IC50: Hill equation fit
Method: as §1
Given that AREG induction by estradiol supports estradiol-dependent proliferation, the expectation was that constitutive overexpression of AREG would confer resistance to drugs that inhibit estrogen signaling (e.g., fulvestrant). […] The proliferation of each cell line was evaluated in the presence of estradiol (1 nM) and varying concentrations of fulvestrant using a genomic DNA quantification assay (CyQuant). The Hill equation was then used to determine the IC50 of each cell line following fulvestrant treatment (FIG. 9A). […] Therefore, targeting AREG signaling may alleviate endocrine therapy resistance.

HCC70 spheroids [4] = test: Confocal fluorescence microscopy of probe labeling in 3D spheroid culture with 2% EHS matrix; format: cell-based; details: azidohomoalanine 24 hours, probe 30 minutes at 37 degrees Celsius, streptavidin Alexa-Fluor 488
Method: To do this, 3D organotypic suspension cultures of the HCC70 breast cancer cell line were generated in the presence of EHS matrix. Next, spheroids were labeled with 500 pM azidohomoalanine for 24 hours, and after washing excess reagent, incubated the spheroids with each of the heterobifunctional probes (three hundred micromolar concentration, 30 minutes at 37 degrees Celsius). […] The samples were also counterstained with DAPI and Phalloidin to visualize the nuclei and the cell surface (F-actin in the HCC70 cells is subcortically localized near the membrane). Lastly, confocal fluorescence microscopy was used to qualitatively assess the spatial distribution of streptavidin labeling in all conditions (FIG. 2).
Azidohomoalanine labeling of 3D HCC70 cultures in 2% EHS matrix. 3D suspension cultures of HCC70 cells in 2% EHS matrix were generated from 2D monolayer culture (as described above), dissociated once, and then plated in fresh 2% EHS matrix. After 48 hours of culture, spheroids were washed three times to remove excess methionine by centrifuging at 200×g for 3 minutes, aspirating the supernatant and resuspending in PBS (with calcium and magnesium). Azidohomoalanine containing media was freshly prepared by diluting a 500 mM azidohomoalanine DMSO stock solution 1,000-fold in methionine reduced 2% EHS matrix suspension media. The washed spheroids were resuspended in azidohomoalanine-containing 2% EHS matrix suspension media (in the same volume as the original suspension), plated in 6-well ultra-low attachment plates, and incubated in TC incubator at 37° C., 5% CO2 for 24 hours.
Spheroids were cultured for 24 hours in the presence of azidohomoalanine to allow the azidohomoalanine to be incorporated into newly synthesized proteins at methionine residues. After 24 hours, spheroids were washed three times with PBS (containing calcium and magnesium) to remove unincorporated azidohomoalanine by centrifugation at 200×g for 1 minute, aspiration of the supernatant, and resuspension in the PBS wash buffer. […]

TAMR cells = test: Click labeling and PEA (Olink Explore 3072) differential intercellular protein expression; format: cell-based; details: tamoxifen (100 nM) + estradiol versus estradiol, FDR<0.05, therapy resistant cells
Method: Three-dimensional cultures of MCF7:WS8 cells and TAMR cells were generated in 2% EHS matrix suspension. Spheroids were treated with either 1) estradiol (10 nM) or 2) estradiol (10 nM) and tamoxifen (100 nM). […] The eluted protein fraction was then subjected to proximity extension assay-based quantification using the Olink® Explore protocol to quantify the abundance of proteins in a 3072-plex panel.
First, a tamoxifen-induced protein signature was developed for each line by comparing how each cell line responded to tamoxifen treatment. Next, the log 2-fold change enrichment was quantified for cells treated with or without tamoxifen.
MCF7 cells were seeded, as described above, in estrogen-depleted 2% EHS matrix suspension culture (containing charcoal-stripped FBS and phenol red free) for 24 hours to create estrogen-starved spheroids. […]
Proteins were measured using the Olink® Explore 3072 panel (Olink Proteomics AB, Uppsala, Sweden) according to the manufacturer's instructions. […] Libraries were subjected to a bead-based purification and quality was assessed using an Agilent 2100 bioanalyzer (Agilent Technologies, Palo Alto, CA). […]

Claudin 7 = test: Streptavidin bead capture, elution and Claudin 7 western blot; design: species or system human; details: HCC70 spheroids, mild competitive elution with free biotin versus denaturing elution
Method: After lysing the spheroids, biotinylated or desthiobiotinylated proteins were captured using streptavidin-functionalized magnetic polystyrene beads. The unbound fraction was also collected to evaluate the capture efficiency. […] This competitive elution was performed in two sequential incubations at 37° C. and 4° C. The recovery of Claudin 7 was used to evaluate the efficiency with which full-length intercellular proteins were released from the magnetic bead. Claudin 7 is a well-known tight-junction protein associated with intercellular adhesions (FIG. 4A), and it is localized to the pericellular zones in HCC70 spheroids (FIG. 4D). Next, western blots against Claudin 7 were performed in the eluted fraction from the streptavidin pull-down, and the signal intensity of Claudin 7 from the 15 μg of HCC70 spheroid starting lysate was evaluated. […] Streptavidin magnetic bead enrichment. […] For every 100 μL of sample, 200 μL of the 10 mg/mL magnetic bead suspension were used. […] Next a magnetic bead pellet was prepared by separating the beads on a magnetic stand and removing the supernatant. […] Western blot and dot blot quantification. Western blot quantification was performed using ImageJ. […] Integrated fluorescence intensity was calculated using the “Measure” tool, and the background-corrected integrated fluorescence intensity was computed for each band.

[5] = system: Laminin B1, Laminin C1, and Nidogen; test: LC/MS label-free quantification of EHS matrix proteins in eluted fraction versus starting lysate; details: HCC70 spheroids, 2% EHS matrix, streptavidin enrichment and elution with free biotin
Method: Compositions of the EHS matrix vary from lot-to-lot, but three of the most abundant proteins EHS matrix preparations are known to be Laminin B1, Laminin C1, and Nidogen. LC/MS proteomics were performed on crude lysates prepared from organotypic cultures of HCC70 spheroids in 2% EHS matrix. As expected, the most abundant proteins in these crude lysates were the EHS matrix proteins, Laminin B1, Laminin Cl, and Nidogen (FIG. 5A). This was true regardless of whether the peptide search was performed against the human or mouse proteome, due to high sequence homology of these proteins between both species. […] Protein concentration of crude lysates was determined using a Pierce BCA assay kit (Thermo Fisher Scientific #23225) according to the manufacturer's protocol. […] Desalted samples were brought up in 2% acetonitrile in 0.1% formic acid and were analyzed by LC/ESI MS/MS with a Thermo Scientific Easy-nLC 1000 (Thermo Scientific, Waltham, MA) nano HPLC system coupled to a tribrid Orbitrap Fusion (Thermo Scientific, Waltham, MA) mass spectrometer. […] Label-free quantification data analysis of LC/MS samples. […] In the specific case in which the abundance of EHS matrix proteins was evaluated, a search was also performed against the Uniprot Mus musculus files (however, due to sequence homology the same conclusions were drawn regardless of whether the Mus musculus database was included in the search). […]

[6] = system: breast epithelial MCF10A cells; details: 2D culture, exogenous media supplement; cited from earlier work

Sequence of Streptavidin (P22629 25-183, species assumed): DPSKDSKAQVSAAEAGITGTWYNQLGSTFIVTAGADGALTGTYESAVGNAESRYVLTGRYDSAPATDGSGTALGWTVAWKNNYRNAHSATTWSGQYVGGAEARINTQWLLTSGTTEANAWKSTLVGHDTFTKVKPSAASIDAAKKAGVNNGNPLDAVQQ

Molecule: C[C@@H]1NC(=O)N[C@@H]1CCCCCC(=O)O [Desthiobiotin]
- Kd (Streptavidin): 0.66 nM
- Koff (Streptavidin): 0.018 s⁻¹
- Kon (Streptavidin): 2.7e7 1/M 1/s

Molecule: Cc1nc(NC(=O)N2CCC[C@H]2C(N)=O)sc1-c1ccnc(C(C)(C)C(F)(F)F)c1 [alpelisib]
- effect of AREG overexpression on alpelisib response (MCF7:PIK3CA-WT cells): no effect
- increase in IC50 by AREG overexpression (MCF7:PIK3CA-mutant cells): 4 fold

Molecule: [N-]=[N+]=NCC[C@H](N)C(=O)O [azidohomoalanine]
- streptavidin binding versus non-labeled azidohomoalanine controls (HCC70 spheroids [1]; 2% EHS matrix suspension, DBCO-PEG4-Desthiobiotin labeling): 10 fold

Molecule: C[C@]12CC[C@@H]3c4ccc(O)cc4CC[C@H]3[C@@H]1CC[C@@H]2O [estradiol]
- number of proteins upregulated by at least 2-fold (MCF7:WS8 cells [2]; estradiol versus estrogen-deprived controls, FDR<0.05): at least 188 proteins

Molecule: C[C@]12CC[C@@H]3c4ccc(O)cc4C[C@@H](CCCCCCCCC[S+]([O-])CCCC(F)(F)C(F)(F)F)[C@H]3[C@@H]1CC[C@@H]2O (stereo partly drawn) [fulvestrant]
- most significantly upregulated intercellular protein (MCF7:WS8 cells [2]; estradiol (1 nM) + fulvestrant versus estradiol (1 nM) alone, FDR<0.05): ITGB6
- IC50 (MCF7:WS8 cells [3]; MCF7:WS8, AREG overexpression line): 255 nM
- IC50 (MCF7:WS8 cells [3]; MCF7:WS8, control line (ORF stuffer)): 34 nM
- increase in IC50, AREG overexpression versus control (MCF7:WS8 cells [3]): 7.5 fold

Molecule: O=C1N[C@H]2[C@H](CS[C@H]2CCCCC(=O)ON2C(=O)CC(S(=O)(=O)[O-])C2=O)N1.[Na+] (stereo partly drawn) [sulfo-NHS-biotin]
- labeling of the pericellular zone / intercellular spaces (HCC70 spheroids [4]): unable to diffuse into intercellular zones of the organoids
- streptavidin binding signal, hydrogels containing HCC70 cells versus cell-free EHS matrix (HCC70 spheroids [1]): equal

Molecule: CC/C(=C(\c1ccccc1)c1ccc(OCCN(C)C)cc1)c1ccccc1 [tamoxifen]
- number of proteins upregulated at least 2-fold in response to tamoxifen (MCF7:WS8 cells [2]; tamoxifen (100 nM) + estradiol versus estradiol, FDR<0.05, therapy sensitive cells): Thirty
- number of proteins upregulated at least 2-fold in response to tamoxifen (TAMR cells): forty-three

Molecule: DBCO-PEG4-Desthiobiotin
- labeling of the pericellular zone / intercellular spaces (HCC70 spheroids [4]): exhibited pericellular labeling
- streptavidin binding signal, hydrogels containing HCC70 cells versus cell-free EHS matrix (HCC70 spheroids [1]): 10 fold
- recovery of Claudin 7 compared to the DBCO-sulfo-biotin samples (Claudin 7): 10 fold
- lower normalized abundance of Laminin B1, Laminin C1 and Nidogen versus starting lysates [5]: over 10 fold

Molecule: DBCO-sulfo-Biotin
- labeling of the pericellular zone / intercellular spaces (HCC70 spheroids [4]): exhibited pericellular labeling

B1: recombinant amphiregulin: recombinant amphiregulin (AREG), EGF receptor family ligand (protein, UniProt P15514 101-187, looked up)
Amphiregulin: SVRVEQVVKPPQNKTESENTSDKPKRKKKGGKNGKNRRNRKKKNPCNAEFQNFCIHGECKYIEHLEAVTCKCQQEYFGERCGEKSMK
modifications: Amphiregulin
notes: recombinant amphiregulin (AREG), EGF receptor family ligand
- concentrations at which activity is exhibited [6]: 5 to 50 ng/mL

Source: patent US20260200971A1, “METHODS FOR ISOLATING, DETECTING, AND QUANTIFYING INTERCELLULAR PROTEINS” (Fred Hutchinson Cancer Center, priority 2022, published 2026)
